Results taken from ChEMBL document CHEMBL1137775, “Structure-based design of a benzodiazepine scaffold yields a potent allosteric inhibitor of hepatitis C NS5B RNA polymerase” (J Med Chem, 2009).
pEC50, pIC50, pKd: −log10 of the molar value.

Key:
Hepatitis C virus [1] = test: Inhibition of HCV 1b con1 isolate recombinant NS5B Cdelta21 RNA dependent RNA polymerase-mediated primer-dependent transcription by SPA; parameters: species or system Hepacivirus hominis
Hepatitis C virus [2] = test: Antiviral activity against HCV 1b having NS5B E1202G/T1280I/K1846 mutation infected in human hepatoma cells after 3 days by replicon luciferase assay; format: functional, organism-based, Hepacivirus hominis; details: genotype 1b, 72 h
Hepatitis C virus [3] = test: Binding affinity to HCV 1b con1 isolate recombinant NS5B Cdelta21 RNA dependent RNA polymerase overexpressed in Escherichia coli BL21(DE3) by surface plasmon resonance experiment; parameters: species or system Hepacivirus hominis

Structure (SMILES) | pIC50 (Hepatitis C virus [1]) | pEC50 (Hepatitis C virus [2]) | pKd (Hepatitis C virus [3])
Cc1cccc(C(=O)N2c3cccc(O)c3NC3=C([C@H]2c2ccc(OCc4ccccc4)cc2F)S(=O)(=O)CC(C)(C)C3)n1 | 5.17 | 5.32 | –
Cc1cccc(C(=O)N2c3cccc(O)c3NC3=C([C@@H]2c2ccc(OCc4ccccc4)cc2F)S(=O)(=O)CC(C)(C)C3)n1 | 7.59 | 7.54 | –
Cc1cccc(C(=O)N2c3cccc(O)c3NC3=C(C(=O)CC(C)(C)C3)[C@@H]2c2ccc(OCc3ccccc3)cc2F)n1 | 7.13 | 6.40 | 7.82
CC(=O)N1c2cccc(O)c2NC2=C(C(=O)CC(C)(C)C2)[C@@H]1c1ccc(OCc2ccccc2)cc1Cl | – | 5.92 | –
Cc1cccc(C(=O)N2c3cccc(O)c3NC3=C(C2c2ccc(OCc4ccccc4)cc2F)S(=O)(=O)CC(C)(C)C3)n1 (racemic) | 6.92 | 7.28 | –
